Target: T1, vanilloid receptor (Rattus norvegicus, UniProt O35433)
T1 construct: DRG nerve cells from the primary culture of 2 days were equilibrated; endogenous in cells; host or cells: primary culture of dorsal root ganglion neurons from neonatal SD rats
Assay: 45Ca influx test (antagonist calcium uptake test) in rat DRG neurons stimulated with capsaicin
Type: cell-based
Conditions: neonatal SD rat DRG neurons, capsaicin 0.5 μM; for IC50: 45Ca
Experimental: 1) Separation of spinal dorsal root ganglia (DRG) in newborn rats and primary culture thereof
Neonatal (2-3 clay old or younger than 2-3 day old) SD rats were put in ice for 5 minutes to anesthetize and disinfected with 70% ethanol. DRG of all part of spinal cord were dissected (Wood et al., 1988, J. Neurosci. 8, pp 3208-3220) and collected in DME/F12 medium to which 1.2 g/l sodium bicarbonate and 50 mg/l gentamycin were added. The DRG were incubated sequentially at 37° C. for 30 mins in 200 U/ml collagenase and 2.5 mg/ml trypsin, separately. The ganglia were washed twice with DME/F12 medium supplemented with 10% horse serum, triturated through a fire-polished Pasteur pipette, filtered through Nitex 80 membrane to obtain single cell suspension and the suspension was washed once more. This was subjected to centrifugation, then resuspended in cell culture medium at certain level of cell density. As the cell culture medium, DME/F12 medium supplemented with 10% horse serum was diluted with identical medium conditioned by C6 glioma cells 2 clays on a confluent monolayer (1:1), and NGF (Nerve Growth Factor) was added to adjust 200 ng/ml as final concentration. After the cells were grown 2 days in medium where cytosine arabinoside (Ara-C, 100 μM) was added to kill dividing nonneuronal cells, medium was changed to one without Ara-C. The resuspended cells were plated at a density of 1500-2000 neurons/well onto Terasaki plates previously coated with 10 μg/ml poly-D-ornithine.
2) ^45Ca Influx Experiments
DRG nerve cells from the primary culture of 2 days were equilibrated by washing 4 times with HEPES (10 mM, pH 7.4)-buffered Ca^2+, Mg^2+-free HBSS (H-HBSS). The solution in each well was removed from the individual well. Medium containing the test compound plus capsaicin (final concentration 0.5 μM) and ^45Ca (final concentration 10 μCi/ml) in H-HBSS was added to each well and incubated at room temperature for 10 nuns. Terasaki plates were washed five times with H-HBSS and dried at room temperature. To each well, 0.3% SDS (10 μl) was added to elute ^45Ca. After the addition of scintillation cocktail of into each well, the amount of ^45Ca influx into neuron was measured by counting radioactivity. Antagonistic activities of test compounds against vanilloid receptor were calculated as percent of the inhibition of maximal response of capsaicin at a concentration of 0.5 μM.

[1] = DRG neuron, read-out: Antagonist Calcium Uptake Test, percent inhibition of capsaicin response

T1 sequence (O35433 whole entry): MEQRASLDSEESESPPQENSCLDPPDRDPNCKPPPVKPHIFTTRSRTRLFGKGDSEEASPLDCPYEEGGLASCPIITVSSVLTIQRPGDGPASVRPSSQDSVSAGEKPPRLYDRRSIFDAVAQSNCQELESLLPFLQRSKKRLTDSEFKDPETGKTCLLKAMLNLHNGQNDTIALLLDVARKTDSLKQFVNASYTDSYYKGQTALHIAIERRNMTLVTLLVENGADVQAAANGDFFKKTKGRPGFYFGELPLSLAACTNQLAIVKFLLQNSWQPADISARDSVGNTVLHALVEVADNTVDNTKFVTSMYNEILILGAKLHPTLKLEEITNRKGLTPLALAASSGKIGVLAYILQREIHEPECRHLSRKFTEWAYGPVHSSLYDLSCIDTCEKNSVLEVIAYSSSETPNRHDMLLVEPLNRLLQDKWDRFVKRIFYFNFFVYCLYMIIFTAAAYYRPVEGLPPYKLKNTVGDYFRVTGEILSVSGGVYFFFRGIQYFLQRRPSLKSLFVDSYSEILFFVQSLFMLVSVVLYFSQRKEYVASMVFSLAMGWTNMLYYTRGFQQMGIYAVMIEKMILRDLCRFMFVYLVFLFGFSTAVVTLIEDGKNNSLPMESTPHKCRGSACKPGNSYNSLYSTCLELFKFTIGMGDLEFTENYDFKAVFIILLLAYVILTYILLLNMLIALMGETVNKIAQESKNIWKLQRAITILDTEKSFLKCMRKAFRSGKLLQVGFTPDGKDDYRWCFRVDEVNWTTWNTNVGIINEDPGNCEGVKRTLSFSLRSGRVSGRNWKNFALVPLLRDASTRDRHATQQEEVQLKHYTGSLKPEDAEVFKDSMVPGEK

SMILES | IC50 | further results
C[C@@H](NC(=O)c1coc(-c2ccc(C(C)(C)C)cc2)n1)c1cc(F)c(NS(C)(=O)=O)c(F)c1 [Example 75, 2-(4-tort-Butyl-phenyl)-oxazole-4-carboxylic acid [1-(3,5-difluoro-4-methanesulfonylamino-phenyl)-ethyl]-amide] | 2400 nM | 
C[C@@H](NC(=O)c1coc(Oc2cccc3c2CCCC3)n1)c1cc(F)c(NS(C)(=O)=O)c(F)c1 (stereo in doubt) [Example 55, 2-(5,6,7,8-Tetrahydro-naphthalen-1-yloxy)-oxazole-4-carboxylic acid [1-(3,5-difluoro-4-methanesulfonylamino-phenyl)-ethyl]-amide] |  | inhibition at 1 µM [1]: 74%
CS(=O)(=O)Nc1c(F)cc(CNC(=O)c2cc(-c3ccc(Br)cc3)oc2C(F)(F)F)cc1F [Example 61, 5-(4-Bromo-phenyl)-2-trifluoromethyl-furan-3-carboxylic acid 3,5-difluoro-4-methanesulfonylamino-benzylamide] | 2800 nM | 
C[C@@H](NC(=O)c1ccc(-c2cc(C3CC3)cc(C(F)(F)F)c2)o1)c1cc(F)c(NS(C)(=O)=O)c(F)c1 [Example 95, 5-(3-Cyclopropyl-5-trifluoromethyl-phenyl)-furan-2-carboxylic acid [1-(3,5-difluoro-4-methanesulfonylamino-phenyl)-ethyl]-amide] |  | inhibition at 1 µM [1]: 66%
C[C@@H](NC(=O)c1coc(Nc2cccc(C(F)(F)F)c2)n1)c1cc(F)c(NS(C)(=O)=O)c(F)c1 [Example 44, 2-(3-Trifluoromethyl-phenylamino)-oxazole-4-carboxylic acid [1-(3,5-difluoro-4-methanesulfonylamino-phenyl)-ethyl]-amide] | 5500 nM | 
C[C@@H](NC(=O)c1coc(-c2ccc(-c3ccccc3)cc2)n1)c1cc(F)c(NS(C)(=O)=O)c(F)c1 [Example 78, 2-Biphenyl-4-yl-oxazole-4-carboxylic acid [1-(3,5-difluoro-4-methanesulfonylamino-phenyl)-ethyl]-amide] | > 10000 nM | 
C[C@@H](NC(=O)c1coc(Oc2ccc(C(F)(F)F)cc2)n1)c1cc(F)c(NS(C)(=O)=O)c(F)c1 [Example 6, 2-(4-Trifluoromethyl-phenoxy)-oxazole-4-carboxylic acid [1-(3,5-difluoro-4-methanesulfonylamino-phenyl)-ethyl]-amide] | 5000 nM | 
COc1ccc(-c2nc(C(=O)N[C@H](C)c3cc(F)c(NS(C)(=O)=O)c(F)c3)co2)cc1C(F)(F)F (stereo in doubt) [Example 96, 2-(4-Methoxy-3-trifluoromethyl-phenyl)-oxazole-4-carboxylic acid [1-(3,5-difluoro-4-methanesulfonylamino-phenyl)-ethyl]-amide] | 1300 nM | 
C[C@@H](NC(=O)c1coc(Oc2cccc([N+](=O)[O-])c2)n1)c1cc(F)c(NS(C)(=O)=O)c(F)c1 [Example 18, 2-(3-Nitro-phenoxy)-oxazole-4-carboxylic acid [1-(3,5-difluoro-4-methanesulfonylamino-phenyl)-ethyl]-amide] | 2900 nM | 
CS(=O)(=O)Nc1c(F)cc(CNC(=O)c2ccc(-c3cccc(C(F)(F)F)c3)o2)cc1C(F)(F)F [Example 113, 5-(3-Trifluoromethyl-phenyl)-furan-2-carboxylic acid 4-methanesulfonylamino-3-fluoro-5-trifluomethyl-benzylamide] | 1400 nM | 
CCN(CC)c1cccc(Oc2nc(C(=O)N[C@H](C)c3cc(F)c(NS(C)(=O)=O)c(F)c3)co2)c1 [Example 8, 2-(3-Diethylamino-phenoxy)-oxazole-4-carboxylic acid [1-(3,5-difluoro-4-methanesulfonylamino-phenyl)-ethyl]-amide] | 2700 nM | 
C[C@@H](NC(=O)c1coc(-c2ccccc2Cl)n1)c1cc(F)c(NS(C)(=O)=O)c(F)c1 (stereo in doubt) [Example 84, 2-(2-Chloro-phenyl)-oxazole-4-carboxylic acid [1-(3,5-difluoro-4-methanesulfonylamino-phenyl)-ethyl]-amide] | 7400 nM | 
CCCOc1cccc(-c2nc(C(=O)N[C@H](C)c3cc(F)c(NS(C)(=O)=O)c(F)c3)co2)c1 [Example 71, 2-(3-Propoxy-phenyl)-oxazole-4-carboxylic acid [1-(3,5-difluoro-4-methanesulfonylamino-phenyl)-ethyl]-amide] | 1200 nM | 
C=Cc1cc(-c2ccc(C(=O)N[C@H](C)c3cc(F)c(NS(C)(=O)=O)c(F)c3)o2)cc(C(F)(F)F)c1 [Example 114, 5-(3-Trifluoromethyl-5-vinyl-phenyl)-furan-2-carboxylic acid [1-(3,5-difluoro-4-methanesulfonylamino-phenyl)-ethyl]-amide] |  | inhibition at 3 µM (DRG neuron, @3 μM, read-out: Antagonist Calcium Uptake Test, percent inhibition of capsaicin response): 93%

More lines, in order of falling IC50, values ahead:

IC50 | SMILES | further results
1200 nM | CC(C)Oc1cccc(Oc2nc(C(=O)N[C@H](C)c3cc(F)c(NS(C)(=O)=O)c(F)c3)co2)c1 [Example 48, 2-(3-Isopropoxy-phenoxy)-oxazole-4-carboxylic acid [1-(3,5-difluoro-4-methanesulfonylamino-phenyl)-ethyl]-amide] | 
1100 nM | C[C@@H](NC(=O)c1coc(Oc2cccc(C3CCCC3)c2)n1)c1cc(F)c(NS(C)(=O)=O)c(F)c1 [Example 51, 2-(3-Cyclopentyl-phenoxy)-oxazole-4-carboxylic acid [1-(3,5-difluoro-4-methanesulfonylamino-phenyl)-ethyl]-amide] | 
1000 nM | CC(C)c1cccc(Oc2ccc(C(=O)N[C@H](C)c3cc(F)c(NS(C)(=O)=O)c(F)c3)o2)c1 [Example 59, 5-(3-Isopropyl-phenoxy)-furan-2-carboxylic acid [1-(3,5-difluoro-4-methanesulfonylamino-phenyl)-ethyl]-amide] | 
1000 nM | C[C@@H](NC(=O)c1coc(-c2ccc(Cl)c(Cl)c2)n1)c1cc(F)c(NS(C)(=O)=O)c(F)c1 [Example 86, 2-(3,4-Dichloro-phenyl)-oxazole-4-carboxylic acid [1-(3,5-difluoro-4-methanesulfonylamino-phenyl)-ethyl]-amide] | 
1000 nM | C[C@@H](NC(=O)c1coc(-c2cccc(N(C)C)c2)n1)c1cc(F)c(NS(C)(=O)=O)c(F)c1 [Example 81, 2-(3-Dimethylamino-phenyl)-oxazole-4-carboxylic acid [1-(3,5-difluoro-4-methanesulfonylamino-phenyl)-ethyl]-amide] | 
910 nM | Cc1cccc(-c2nc(C(=O)N[C@H](C)c3cc(F)c(NS(C)(=O)=O)c(F)c3)co2)c1C [Example 90, 2-(2,3-Dimethyl-phenyl)-oxazole-4-carboxylic acid [1-(3,5-difluoro-4-methanesulfonylamino-phenyl)-ethyl]-amide] | 
770 nM | C[C@@H](NC(=O)c1coc(-c2cc(Br)cc(C3CC3)c2)n1)c1cc(F)c(NS(C)(=O)=O)c(F)c1 [Example 115, 2-(3-Bromo-5-cyclopropyl-phenyl)-oxazole-4-carboxylic acid [1-(3,5-difluoro-4-methanesulfonylamino-phenyl)-ethyl]-amide] | 
600 nM | C[C@@H](NC(=O)c1coc(Oc2cccc3c2OC2(CCCC2)O3)n1)c1cc(F)c(NS(C)(=O)=O)c(F)c1 [Example 49, 2-(2,3-Dihydroxy-phenoxy)-oxazole-4-carboxylic acid [1-(3,5-difluoro-4-methanesulfonylamino-phenyl)-ethyl]-amide, cyclopentanone ketal] | 
440 nM | C[C@@H](NC(=O)c1cc(-c2ccc(Br)cc2)oc1C(F)(F)F)c1cc(F)c(NS(C)(=O)=O)c(F)c1 [Example 62, 5-(4-Bromo-phenyl)-2-trifluoromethyl-furan-3-carboxylic acid [1-(3,5-difluoro-4-methanesulfonylamino-phenyl)-ethyl]-amide] | 
400 nM | C[C@@H](NC(=O)c1coc(Oc2cccc3c2OC(C)(C)C3)n1)c1cc(F)c(NS(C)(=O)=O)c(F)c1 (stereo in doubt) [Example 34, 2-(2,2-Dimethyl-2,3-dihydro-benzofuran-7-yloxy)-oxazole-4-carboxylic acid [1-(3,5-difluoro-4-methanesulfonylamino-phenyl)-ethyl]-amide] | 
290 nM | CC1CCCc2c(Oc3nc(C(=O)N[C@H](C)c4cc(F)c(NS(C)(=O)=O)c(F)c4)co3)cccc21 (stereo partly shown) [Example 39, 2-(5-Methyl-5,6,7,8-tetrahydro-naphthalen-1-yloxy)-oxazole-4-carboxylic acid [1-(3,5-difluoro-4-methanesulfonylamino-phenyl)-ethyl]-amide] | 
